Laboratory results reported in patent US20160213742A1, “COMPOSITIONS AND METHODS FOR THE TREATMENT OF FUNGAL INFECTIONS” (priority 2013, published 2016).
Converted amounts (≈) assume the structure as drawn. Like-named read-outs stand apart in the source and are kept apart here. Starred links: 1 amine or outer side, 2 acyl side, 3 side chain; linkers in the order of their positions; H or OH if unused. Positions of bridges follow the written chain, without caps; N, C: chain ends. Non-standard residues stand in square brackets, D forms with d. Residues, ends and D or L forms follow the SMILES beside them. Groups on a side chain read outwards from the residue. *: point of attachment. Orn(4R-OH,5R-OCH2CH2NMe3+) = C[N+](C)(C)CCO[C@@H](N[*:3])[C@H](O)C[C@H](N[*:1])C(=O)[*:2]; pTerphenylCO(4''-OnC5H11) = CCCCCOc1ccc(-c2ccc(-c3ccc(C(=O)*)cc3)cc2)cc1; X1 = O=C([C@@H](N[*:1])[C@H](O)[C@@H](O)c1ccc(O)c(N[*:3])c1)[*:2]; Pro(3S-OH,4S-Me) = C[C@H]1CN[C@H](C(=O)O)[C@H]1O; Hyp = O=C(O)[C@@H]1C[C@@H](O)CN1; βAla = NCCC(=O)O; For = O=C*

Experiments:
Assay type in all cases: cell-based
A. fumigatus MYA-3626 = assay: MEC assay (Example 32); details: MEC values (24 h), rounded/compact hyphal morphology
Experimental: (§1) MIC and MEC assays were run as described in Example 31 with the following exceptions. Starting solutions of all antifungal agents were prepared in 100% DMSO. Stock concentrations were made at 50× the highest final assay concentration and serially diluted 2-fold, 16 times in a 96-well PCR plate (VWR 83007-374). Candida and Aspergillus suspensions from Sabouraud dextrose agar plate cultures were prepared in 0.85% saline at 0.5 McFarland standard (˜0.1 OD530 nm). Candida suspensions were diluted 1:500 in RPMI (MP Biomedicals, cat no. 1060124; buffered with MOPS and adjusted with NaOH to pH 7.0) to a concentration of ˜0.5-2.5×10^3 CFU/mL and Aspergillus suspensions were diluted 1:50 in RPMI to 0.4-5×10^4 CFU/mL final concentration. 98 μL of each cell suspension in RPMI were added to test wells in a 96-well assay plate (Costar cat. no. 3370). A Beckman Multimek 96 liquid handling robot was used to dispense 2 μL of each 50× stock compound into the plate containing 98 μL of each strain in RPMI (2% final solvent concentration). Plates were shaken then incubated at 35° C. for 24-48 h prior to reading. MIC values were read visually at 50% growth inhibition for echinocandins (24 h) and at 100% growth inhibition for amphotericin B (48 h). MEC values (24 h) were read with the aid of a microscope at the lowest echinocandin concentration where rounded/compact hyphal morphology was observed.

A. niger ATCC 16404 = assay: MEC assay (Example 32); details: MEC values (24 h), rounded/compact hyphal morphology
Experimental: as §1

A. fumigatus MYA-4609 = assay: MEC assay (Example 32); details: MEC values (24 h), rounded/compact hyphal morphology
Experimental: as §1

A. fumigatus ATCC 13073 = assay: MEC assay (Example 32); details: MEC values (24 h), rounded/compact hyphal morphology
Experimental: as §1

A. flavus ATCC MYA-3631 = assay: MEC assay (Example 32); details: MEC values (24 h), rounded/compact hyphal morphology
Experimental: as §1

[1] = test system: Neutrophils purified from human peripheral blood; assay: Human Neutrophil Transwell Migration Assay; details: 37° C., 45 minutes, % of the maximum migration possible
Summary of the method: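 Neutrophils (~50,000–100,000) were placed above 5-micron transwell inserts with test compound in the lower chamber and allowed to migrate 45 min at 37° C. Migrated cells were quantified by ATP luminescence; medium-only background was subtracted and values expressed as % of cells added directly to the bottom well.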

C. albicans ATCC 90028 = test system: C. albicans ATCC 90028
Experimental: as §1

C. tropicalis ATCC 750 = test system: C. tropicalis ATCC 750
Experimental: as §1

C. glabrata ATCC 90030 = test system: C. glabrata ATCC 90030
Experimental: as §1

[2] = test system: C. parapsilosis ATCC 22019
Experimental: as §1

C. krusei ATCC 14243 = test system: C. krusei ATCC 14243
Experimental: as §1

Row | SMILES | MEC (A. fumigatus MYA-3626) [µg/mL] | MEC (A. niger ATCC 16404) [µg/mL] | MEC (A. fumigatus MYA-4609) [µg/mL] | MEC (A. fumigatus ATCC 13073) [µg/mL] | MEC (A. flavus ATCC MYA-3631) [µg/mL] | % Neutrophil Migration ([1]; conc 0.001 μg/mL) [%] | % Neutrophil Migration ([1]; conc 0.01 μg/mL) [%] | % Neutrophil Migration ([1]; conc 0.1 μg/mL) [%] | % Neutrophil Migration ([1]; conc 1 μg/mL) [%] | % Neutrophil Migration ([1]; conc 10 μg/mL) [%] | MIC (C. albicans ATCC 90028; ATCC 90028, 24 h) [µg/mL] | MIC (C. tropicalis ATCC 750; ATCC 750, 24 h) [µg/mL] | MIC (C. glabrata ATCC 90030; ATCC 90030, 24 h) [µg/mL] | MIC ([2]; ATCC 22019, 24 h) [µg/mL] | MIC (C. krusei ATCC 14243; ATCC 14243, 24 h) [µg/mL] | MIC (C. albicans ATCC 90028; C. albicans ATCC 90028, read at 50% growth inhibition for echinocandins (24 h), 100% for amphotericin B (48 h)) [µg/mL] | MIC (C. tropicalis ATCC 750; C. tropicalis ATCC 750, read at 50% growth inhibition for echinocandins (24 h), 100% for amphotericin B (48 h)) [µg/mL] | MIC (C. glabrata ATCC 90030; C. glabrata ATCC 90030, read at 50% growth inhibition for echinocandins (24 h), 100% for amphotericin B (48 h)) [µg/mL] | MIC ([2]; C. parapsilosis ATCC 22019, read at 50% growth inhibition for echinocandins (24 h), 100% for amphotericin B (48 h)) [µg/mL] | MIC (C. krusei ATCC 14243; C. krusei ATCC 14243, read at 50% growth inhibition for echinocandins (24 h), 100% for amphotericin B (48 h)) [µg/mL]
1 | CC[C@H](C)C[C@H](C)CCCCCCCCC(=O)N[C@H]1C[C@@H](O)[C@@H](OCCN)NC(=O)[C@@H]2[C@@H](O)CCN2C(=O)[C@H]([C@H](O)CCNC(=O)[C@H](Cc2ccccc2)NC(=O)[C@H](CC(C)C)NC(=O)[C@H](CC[S+](C)[O-])NC=O)NC(=O)[C@H]([C@H](O)[C@@H](O)c2ccc(O)cc2)NC(=O)[C@@H]2C[C@@H](O)CN2C(=O)[C@H]([C@@H](C)O)NC1=O (stereo partly drawn) [Compound 30] | 1 | 0.5 | 0.5 | 0.25 | 0.5 | 105.2 | 133.6 | 234.3 | 48.2 | 19.7 | 2 (≈ 1.31 µM) | 2 (≈ 1.31 µM) | 8 (≈ 5.23 µM) | 32 (≈ 20.9 µM) | 32 (≈ 20.9 µM) |  |  |  |  | 
2 | CCCCCOc1ccc(-c2ccc(-c3ccc(C(=O)N[C@H]4C[C@@H](O)[C@@H](OCC[N+](C)(C)C)NC(=O)[C@@H]5[C@@H](O)[C@@H](C)CN5C(=O)[C@H]([C@@H](C)O)NC(=O)[C@H]([C@H](O)[C@@H](O)c5ccc(O)c(NC(=O)CCNC(=O)[C@H](Cc6ccccc6)NC(=O)[C@H](CC(C)C)NC(=O)[C@H](CCSC)NC=O)c5)NC(=O)[C@@H]5C[C@@H](O)CN5C(=O)[C@H]([C@@H](C)O)NC4=O)cc3)cc2)cc1.O=C[O-] [Compound 31] ({pTerphenylCO(4''-OnC5H11)}-[Orn(4R-OH,5R-OCH2CH2NMe3+)]T[Hyp][X1]([βAla-Phe-Leu-Met-For])T[Pro(3S-OH,4S-Me)]; lactam 1-C) | 0.06 | 0.25 | 0.03 | 0.015 | 0.06 | 126.4 | 115.7 | 146.0 | 134.3 | 64.0 |  |  |  |  |  | 0.5 | 0.25 | 2 | 0.5 | 0.5
